# Reference: publication PMC5428354, “Screening of a natural compound library identifies emodin, a natural compound from Rheum palmatum Linn that inhibits DPP4” (PeerJ, 2017)
# “And” between values parts separate entries of the source, which are not always exact repeats. Identical values can stand only once. Like-named read-outs stand apart in the source and are kept apart here.
# Assays:
# [1] = Blood glucose levels after oral emodin; assay type: in vivo, mice; parameters: unit not given here; conditions: 30 mg/kg P.O., C57BL/6 (head), individual animals
# DPP4 [2] = biological target: T1, DPP4 (Homo sapiens, UniProt P27487); assay: DPP4 activity assay (DPP4 inhibitor screening assay kit, Cayman); assay type: biochemical; parameters: purchased Cayman Chemical, Ann Arbor, MI, USA; conditions: for remaining activity at 10 µM: control mean 100.0;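 on all read-outs here: fluorescence read at excitation 360 nm and emission 460 nm after the enzyme reaction ran 30 min at 37 °C in a 96-well plate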
# Target sequence in this assay (P27487 whole entry): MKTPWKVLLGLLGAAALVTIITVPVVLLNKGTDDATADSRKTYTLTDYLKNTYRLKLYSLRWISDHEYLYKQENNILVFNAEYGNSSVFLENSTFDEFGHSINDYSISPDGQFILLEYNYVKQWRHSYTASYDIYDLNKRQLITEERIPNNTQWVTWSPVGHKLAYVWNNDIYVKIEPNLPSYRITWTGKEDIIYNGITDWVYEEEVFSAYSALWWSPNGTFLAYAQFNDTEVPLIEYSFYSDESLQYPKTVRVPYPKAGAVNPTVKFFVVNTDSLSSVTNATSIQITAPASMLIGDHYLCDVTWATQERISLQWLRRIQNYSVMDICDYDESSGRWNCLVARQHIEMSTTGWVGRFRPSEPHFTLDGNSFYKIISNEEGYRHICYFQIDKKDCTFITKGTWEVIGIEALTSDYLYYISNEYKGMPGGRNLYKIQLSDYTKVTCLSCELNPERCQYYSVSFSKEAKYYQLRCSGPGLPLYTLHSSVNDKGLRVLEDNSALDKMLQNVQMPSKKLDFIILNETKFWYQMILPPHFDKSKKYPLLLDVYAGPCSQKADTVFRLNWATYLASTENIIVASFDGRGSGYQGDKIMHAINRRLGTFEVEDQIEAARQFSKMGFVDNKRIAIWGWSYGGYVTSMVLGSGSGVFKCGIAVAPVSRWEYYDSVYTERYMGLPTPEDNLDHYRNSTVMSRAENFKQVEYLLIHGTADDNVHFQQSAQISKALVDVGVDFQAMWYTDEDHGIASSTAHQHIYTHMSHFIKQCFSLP
# plasma DPP4 activity [3] = biological target: T2, plasma DPP4 activity (Mus musculus, UniProt P28843); assay: Plasma DPP4 activity after oral emodin (DPP4-Glo assay kit); assay type: in vivo, mice; conditions: for plasma DPP4 activity, raw signal / DPP4 activity, raw signal: individual animals; for DPP4 activity, raw signal: C57BL/6 (head)
# T2 construct: followed by plasma collection at different time points to measure DPP4 activity in the blood; from tissue; host or cells: mouse plasma (Balb/c and ob/ob mice)
# T2 sequence (P28843 37-760 limits assumed): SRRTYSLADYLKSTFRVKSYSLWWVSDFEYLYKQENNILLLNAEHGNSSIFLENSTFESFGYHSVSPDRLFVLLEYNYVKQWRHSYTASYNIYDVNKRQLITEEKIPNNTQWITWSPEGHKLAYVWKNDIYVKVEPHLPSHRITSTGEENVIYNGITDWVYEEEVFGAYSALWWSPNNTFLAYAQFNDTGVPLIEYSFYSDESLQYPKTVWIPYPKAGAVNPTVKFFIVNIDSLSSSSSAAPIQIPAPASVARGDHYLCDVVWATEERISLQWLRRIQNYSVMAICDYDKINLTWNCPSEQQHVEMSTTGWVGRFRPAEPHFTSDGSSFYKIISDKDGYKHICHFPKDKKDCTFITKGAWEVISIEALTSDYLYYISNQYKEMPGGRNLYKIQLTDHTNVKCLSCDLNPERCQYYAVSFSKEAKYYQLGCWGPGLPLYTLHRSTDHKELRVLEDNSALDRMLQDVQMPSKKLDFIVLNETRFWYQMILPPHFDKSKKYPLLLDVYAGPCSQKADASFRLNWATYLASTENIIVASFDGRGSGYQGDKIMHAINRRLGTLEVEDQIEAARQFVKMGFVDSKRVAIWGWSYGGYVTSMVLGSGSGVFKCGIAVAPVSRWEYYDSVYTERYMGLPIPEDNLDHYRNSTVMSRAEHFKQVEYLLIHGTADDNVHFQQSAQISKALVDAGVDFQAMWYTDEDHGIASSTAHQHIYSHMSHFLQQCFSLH
# DPP4 [4] = biological target: T1, DPP4; assay: Dialysis assay followed by DPP4 assay; assay type: biochemical; conditions: 0 hr of dialysis; triplicate
# Target sequence in this assay (P27487 whole entry, species assumed): as the sequence (P27487 whole entry) above
# DPP8 = DPP8 (Homo sapiens, UniProt Q6V1X1); assay: DPP8 activity assay (BPS Bioscience kit); assay type: biochemical;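 on DPP8 assay, Emission (450 nm): fluorescence read with excitation at 365 nm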
# Sequence of DPP8 (Q6V1X1 whole entry): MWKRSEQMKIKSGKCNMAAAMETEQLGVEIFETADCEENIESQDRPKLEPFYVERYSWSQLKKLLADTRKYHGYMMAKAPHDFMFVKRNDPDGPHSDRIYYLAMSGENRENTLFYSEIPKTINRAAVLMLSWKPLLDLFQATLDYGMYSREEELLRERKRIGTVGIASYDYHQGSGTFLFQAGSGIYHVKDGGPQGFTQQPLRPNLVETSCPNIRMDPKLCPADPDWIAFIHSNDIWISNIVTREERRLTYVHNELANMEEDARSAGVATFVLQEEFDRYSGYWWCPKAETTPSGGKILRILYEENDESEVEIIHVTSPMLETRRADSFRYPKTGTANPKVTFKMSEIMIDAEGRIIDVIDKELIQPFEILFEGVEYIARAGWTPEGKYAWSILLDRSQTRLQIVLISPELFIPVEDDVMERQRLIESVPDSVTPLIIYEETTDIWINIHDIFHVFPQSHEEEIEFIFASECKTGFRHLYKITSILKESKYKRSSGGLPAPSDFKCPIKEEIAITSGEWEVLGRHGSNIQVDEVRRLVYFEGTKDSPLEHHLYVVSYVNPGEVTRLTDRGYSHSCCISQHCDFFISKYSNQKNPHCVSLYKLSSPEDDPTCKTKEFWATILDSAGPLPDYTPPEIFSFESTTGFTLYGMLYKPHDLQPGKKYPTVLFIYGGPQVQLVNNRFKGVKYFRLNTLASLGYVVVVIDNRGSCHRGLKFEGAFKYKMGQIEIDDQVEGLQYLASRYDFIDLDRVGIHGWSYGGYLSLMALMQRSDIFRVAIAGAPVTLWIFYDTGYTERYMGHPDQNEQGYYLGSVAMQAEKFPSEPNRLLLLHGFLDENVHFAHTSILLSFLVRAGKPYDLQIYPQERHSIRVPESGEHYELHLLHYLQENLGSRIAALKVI
# Procedure: A DPP8 assay kit was purchased from BPS Bioscience (Cat# 800208), and the assay protocol was followed to test for inhibitory activity on DPP8. Briefly, DPP substrate 1 was diluted to make a 100 µM stock solution, and DPP8 protein was diluted in DPP assay buffer to 2 ng/µl (20 ng/reaction). For the tested compounds, 10 µl of diluted DPP8 protein, 5 µl of diluted DPP substrate 1, 84 µl of DPP assay buffer and 1 µl of inhibitor were addedinto the assay system for a total volume of 100 µl. The reaction mixtures were prepared in duplicate on a 96-well plate and incubated at room temperature for 10 min. […]
# DPP4 [5] = biological target: T1, DPP4; assay: Dialysis assay followed by DPP4 assay; assay type: biochemical
# Procedure: Dialysis assay was performed using Slide-A-Lyzer Dialysis Cassettes (Pierce, Shanghai, China). Briefly, 2 mg DPP4 protein was incubated with emodin or dimethyl sulfoxide (DMSO) in 4 ml diluted assay buffer for 10 min at 37 °C. Mixed reaction solution was loaded onto a dialysis cartridge using a syringe and incubated at 4 °C for 8 h. The samples were removed from Dialysis Cassettes by syringes for DPP4 assay.
# Target sequence in this assay (P27487 whole entry, species assumed): as the sequence (P27487 whole entry) above
# [6] = Blood glucose levels after oral emodin; assay type: in vivo, mice; parameters: Blood glucose: unit not given here; conditions: 30 mg/kg P.O.; for Blood glucose: ob/ob mice, individual animals
# Procedure: (§1) Balb/c mice (male, six weeks) and ob/ob (-/-) mice (male, six weeks) were purchased from the Shanghai SLAC Laboratory Animal Co. Ltd. (Shanghai, China) and maintained in an air-conditioned room at 20–25 °C under a 12 h dark/light cycle and fed certified standard chow and tap water ad libitum. Experiments were conducted in compliance with the Guide for the Care and Use of Laboratory Animals. Mice were orally administered with emodin (3, 10, or 30 mg /kg) and had their blood collected at 0.5, 1, 2, and 4 h after emodin treatment. The samples were subjected to plasma isolation immediately after collection. Plasma samples were tested for DPP4 activity with a DPP4-Glo assay kit (Promega, Beijing, China) according to the manufacturer’s protocol. The experimental protocol was approved by Animal Care and Use Committee of Xiamen University(XM2015030514).
# (§2) To test the inhibitory activity of emodin on DPP4 in vivo, an animal experiment was conducted by oral administration of emodin (3, 10 and 30 mg/kg, P.O., n = 5) to Balb/c mice, followed by plasma collection at different time points to measure DPP4 activity in the blood. Plasma samples were collected at 0, 0.5, 1, 2 and 4 h after the oral dose of emodin, and plasma DPP4 activity was measured with a DPP4-Glo assay kit. […] The lowest does of emodin (3 mg/kg) decreased plasma DPP4 activity from baseline, although these levels rebounded after 1 h, whereas 10 and 30 mg/kg doses of emodin decreased plasma DPP4 activity and maintained the lower levels until 2 h post-treatment (Fig. 4). This dose-dependent manner is probably due to the pharmacokinetics of emodin, and 10 and 30 mg/kg have maximized the pharmacokinetic coverage, while 3 mg/kg emodin is only sufficient to maintain 1 h DPP4 inhibition in vivo. In the subsequent experiment, emodin (30 mg/kg, P.O.) was administered on Balb/C mice (n = 5) or ob/ob (-/-) mice (n = 5). The DPP4 activity, blood glucoselevels and GLP-1 activity were tested 0, 1, 2, 4, 8 h after administration. […] This downregulation maintained 2 h in Balb/C mice, and 4 h in ob/ob (-/-) mice, which rebounded afterwards (Fig. 5A). […] Plasma GLP-1 activity was also measured.
# plasma DPP4 activity [7] = biological target: T2, plasma DPP4 activity; assay: Plasma DPP4 activity after oral emodin (DPP4-Glo assay kit); assay type: in vivo, mice; conditions: individual animals; for plasma DPP4 activity, raw signal: Balb/c mice; for DPP4 activity, raw signal: ob/ob mice
# Procedure: as §1, §2
# [8] = 30 mg/kg P.O., 0 hours (baseline)
compound,measurement,setting,value
Cc1cc(O)c2c(c1)C(=O)c1cc(O)cc(O)c1C2=O [Emodin],Blood glucose,[1]; 0 hours (baseline),15.5 and 10.4 and 10.9 (2×) and 11.2
same,Blood glucose,[1]; 1 hours,10.8 (2×) and 12.2 and 9.3 and 9.7
same,Blood glucose,[1]; 2 hours,9.3 and 9.7 and 8.4 and 8.3 and 8
same,Blood glucose,[1]; 4 hours,8.3 and 7.4 and 7.6 and 9.1 and 7.9
same,Blood glucose,[1]; 8 hours,15.9 and 11.5 and 12.6 (2×) and 15.3
same,inhibition at 10 µM,"DPP4 [2]; 10 µM, library screen",> 50%
same,remaining activity at 10 µM,"DPP4 [2]; 0.5 h, 10 µM, Figure 1A raw data, read-out: DPP4 activity in library screen, Exp 1",22%
same,remaining activity at 10 µM,"DPP4 [2]; 0.5 h, 10 µM, Figure 1A raw data, read-out: DPP4 activity in library screen, Exp 2",22.6%
same,remaining activity at 10 µM,"DPP4 [2]; 0.5 h, 10 µM, Figure 1A raw data, read-out: DPP4 activity in library screen, Exp 3",41.2%
same,remaining activity at 10 µM,"DPP4 [2]; 0.5 h, 10 µM, mean of Exp 1-3, read-out: DPP4 activity in library screen, Mean",28.6%
same,remaining activity at 0.39 µM,"DPP4 [2]; 0.5 h, Emodin 0.39 μM, Exp 1-4",100%
same,remaining activity at 0.78125 µM,"DPP4 [2]; 0.5 h, Emodin 0.78125 μM, Exp 1-4",104%
same,remaining activity at 1.5625 µM,"DPP4 [2]; 0.5 h, Emodin 1.5625 μM, Exp 1-4",97.8%
same,remaining activity at 3.125 µM,"DPP4 [2]; 0.5 h, Emodin 3.125 μM, Exp 1-4",83.5%
same,remaining activity at 12.5 µM,"DPP4 [2]; 0.5 h, Emodin 12.5 μM, Exp 1-4",37%
same,remaining activity at 25 µM,"DPP4 [2]; 0.5 h, Emodin 25 μM, Exp 1-4",25.1%
same,remaining activity at 100 µM,"DPP4 [2]; 0.5 h, Emodin 100 μM, Exp 1-4",3.77%
same,Ki,"DPP4 [2]; DPP4, means ± SE",0.85 ± 0.06 µM
same,IC50,"DPP4 [2]; in vitro, means ± SE, read-out: IC50 of DPP4 Inhibition",5.7 µM and 5.76 µM
same,time for which plasma DPP4 activity stayed decreased,"plasma DPP4 activity [3]; 3 mg/kg P.O., Balb/c mice, rebounded afterwards",1 h
same,"plasma DPP4 activity, raw signal","plasma DPP4 activity [3]; 3 mg/kg P.O., time 0 h (baseline), Balb/c mice",200500 and 223040 and 210853
same,"plasma DPP4 activity, raw signal","plasma DPP4 activity [3]; 3 mg/kg P.O., time 0.5 h, Balb/c mice",157120 and 186480 and 184560
same,"plasma DPP4 activity, raw signal","plasma DPP4 activity [3]; 3 mg/kg P.O., time 2 h, Balb/c mice",291827 and 237493 and 317253
same,"plasma DPP4 activity, raw signal","plasma DPP4 activity [3]; 3 mg/kg P.O., time 4 h, Balb/c mice",377573 and 331360 and 321880
same,"plasma DPP4 activity, raw signal","plasma DPP4 activity [3]; 10 mg/kg P.O., time 0 h (baseline), Balb/c mice",349733 and 267840 and 314147
same,"plasma DPP4 activity, raw signal","plasma DPP4 activity [3]; 10 mg/kg P.O., time 1 h, Balb/c mice",158860 and 133520 and 164280
same,"plasma DPP4 activity, raw signal","plasma DPP4 activity [3]; 10 mg/kg P.O., time 2 h, Balb/c mice",158760 and 116813 and 222440
same,"plasma DPP4 activity, raw signal","plasma DPP4 activity [3]; 10 mg/kg P.O., time 4 h, Balb/c mice",367160 and 355600 and 350787
same,time for which downregulation of DPP4 activity was maintained,"plasma DPP4 activity [3]; 30 mg/kg P.O., Balb/C mice, n = 5",2 h
same,"DPP4 activity, raw signal",plasma DPP4 activity [3]; [8],2962300 and 3555100 and 2704100 and 2803100 and 3111100
same,"DPP4 activity, raw signal","plasma DPP4 activity [3]; 30 mg/kg P.O., 1 hours",2755900 and 3040800 and 2268700 and 2388700 and 2836800
same,"DPP4 activity, raw signal","plasma DPP4 activity [3]; 30 mg/kg P.O., 2 hours",3055900 and 3015200 and 2510000 and 2257000 and 2971200
same,"DPP4 activity, raw signal","plasma DPP4 activity [3]; 30 mg/kg P.O., 4 hours",2708000 and 3031400 and 2814800 and 2664500 and 2844400
same,"DPP4 activity, raw signal","plasma DPP4 activity [3]; 30 mg/kg P.O., 8 hours",3130600 and 3310000 and 2020300 and 3224400 and 3166700
same,effect on DPP4 activity,"plasma DPP4 activity [3]; 30 mg/kg P.O., both Balb/C mice and ob/ob (-/-) mice",significant downregulation
same,time for which downregulation of DPP4 activity was maintained,"plasma DPP4 activity [3]; 30 mg/kg P.O., ob/ob (-/-) mice, n = 5",4 h
same,"plasma DPP4 activity, raw signal","plasma DPP4 activity [3]; 30 mg/kg P.O., time 0 h (baseline), Balb/c mice",290800 and 216573 and 224480
same,"plasma DPP4 activity, raw signal","plasma DPP4 activity [3]; 30 mg/kg P.O., time 0.5 h, Balb/c mice",175387 and 222147 and 170307
same,"plasma DPP4 activity, raw signal","plasma DPP4 activity [3]; 30 mg/kg P.O., time 1 h, Balb/c mice",159040 and 152000 and 181707
same,effect on plasma DPP4 activity,"plasma DPP4 activity [3]; 3, 10 and 30 mg/kg, P.O., Balb/c mice, n = 5",decreased the plasma DPP4 activity in a dose-dependent manner
same,time until which lower plasma DPP4 activity was maintained,"plasma DPP4 activity [3]; 10 and 30 mg/kg P.O., Balb/c mice",2 h
same,DPP4 activity in dialysis assay,DPP4 [4],55 % of DMSO and 58 % of DMSO and 62 % of DMSO
same,"DPP4 activity in dialysis assay, raw signal",DPP4 [4],2750000 RLU and 2900000 RLU and 3100000 RLU
same,"DPP8 assay, Emission (450 nm)","DPP8; 100 µM, Exp #1-#5",25326 and 25088 and 25860 and 47385 and 48311
same,DPP8 activity,"DPP8; 100 µM, Exp #1-#5, DMSO = Ctrl",91.7 % of Ctrl and 91.1 % of Ctrl and 90.2 % of Ctrl and 93.0 % of Ctrl and 89.9 % of Ctrl
same,activity against DPP8,DPP8; tested at 100 µM,without inhibiting
same,DPP4 activity in dialysis assay,"DPP4 [5]; 8 hr of dialysis, triplicate",90 % of DMSO and 88 % of DMSO and 85 % of DMSO
same,"DPP4 activity in dialysis assay, raw signal","DPP4 [5]; 8 hr of dialysis, triplicate",4500000 RLU and 4400000 RLU and 4250000 RLU
same,manner of binding to the DPP4 active site,DPP4 [5]; dialysis 8 h at 4 °C,reversible manner
same,effect on blood glucose levels from baseline,[6]; both Balb/C mice and ob/ob (-/-) mice,significantly downregulated
same,time for which downregulation of blood glucose was maintained,"[6]; both Balb/C mice and ob/ob (-/-) mice, baseline again at 8 h",4 h
same,Blood glucose,[6]; 0 hours (baseline),18.6 and 13.3 and 11.5 and 12.1 and 14.4
same,Blood glucose,[6]; 1 hours,9.4 and 11.3 and 13.1 and 10.9 and 12
same,Blood glucose,[6]; 2 hours,11 and 9.2 and 8.1 and 9.5 and 10.9
same,Blood glucose,[6]; 4 hours,8 and 10.3 and 8.2 and 7.3 and 9.2
same,Blood glucose,[6]; 8 hours,14.7 and 14.2 and 13.9 and 12.8 and 13.1
same,"plasma DPP4 activity, raw signal","plasma DPP4 activity [7]; 3 mg/kg P.O., time 1 h",213620 and 121520 and 101880
same,"plasma DPP4 activity, raw signal","plasma DPP4 activity [7]; 10 mg/kg P.O., time 0.5 h",241067 and 195640 and 202693
same,"DPP4 activity, raw signal",plasma DPP4 activity [7]; [8],3401200 and 3668100 and 3319500 and 3595400 and 3453300
same,"DPP4 activity, raw signal","plasma DPP4 activity [7]; 30 mg/kg P.O., 1 hours",3125000 and 3575300 and 2433200 and 3311900 and 2854200
same,"DPP4 activity, raw signal","plasma DPP4 activity [7]; 30 mg/kg P.O., 2 hours",3363400 and 2959900 and 2928700 and 2749100
same,"DPP4 activity, raw signal","plasma DPP4 activity [7]; 30 mg/kg P.O., 4 hours",3275000 and 2989300 and 2592200 and 2835500 and 2877800
same,"DPP4 activity, raw signal","plasma DPP4 activity [7]; 30 mg/kg P.O., 8 hours",3489100 and 3461100 and 2912800 and 3032000 and 2847400
same,"plasma DPP4 activity, raw signal","plasma DPP4 activity [7]; 30 mg/kg P.O., time 2 h",196547 and 112320 and 158453
same,"plasma DPP4 activity, raw signal","plasma DPP4 activity [7]; 30 mg/kg P.O., time 4 h",339907 and 323187 and 357187
